Reference: US9012635B2, “Pyridone amides and analogs exhibiting anti-cancer and anti-proliferative activities” (Deciphera Pharmaceuticals, LLC, priority 2013, dated 2015)
Counter-ions that a name gives are not always drawn.

Assays:
[1] = target: T1, Phospho-MET in EBC-1 cells (Homo sapiens, UniProt P08581); test: EBC-1 phospho-MET ELISA; assay type: cell-based; conditions: 6 h compound, 40 ng/mL HGF 10 min, read-out: EBC1 pMET
T1 construct: endogenous in cells; host or cells: EBC-1 (JCRB0820)
Method: (§1) EBC-1 cells (catalog #JCRB0820) were obtained from the Japan Health Science Research Resources Bank, Osaka, Japan. Briefly, cells were grown in DMEM supplemented with 10% characterized fetal bovine serum (Invitrogen, Carlsbad, Calif.) at 37° C., 5% CO2, 95% humidity. Cells were allowed to expand until reaching 70-95% confluency at which point they were subcultured or harvested for assay use.
Fifteen thousand cells in DMEM supplemented with 0.5% characterized fetal bovine serum (FBS; Invitrogen, Carlsbad, Calif.) were added per well in a 96-well black clear bottom plate (Corning, Corning, N.Y.). Cells were then incubated overnight at 37 degrees Celsius, 5% CO2, 95% humidity. A serial dilution of test compound was dispensed into another 96-well black clear bottom plate (Corning, Corning, N.Y.) containing DMEM supplemented with 0.5% FBS. Diluted compound was then added to plates containing cells and incubated for 6 hours at 37 degrees Celsius, 5% CO2, 95% humidity. Cells were stimulated with 40 ng/mL HGF (R&D Systems, Minneapolis, Minn.) for 10 minutes, and then lysed. Phospho-MET in cell lysates was detected using the DuoSet IC Human Phospho-HGF R/c-MET ELISA (R&D Systems, Minneapolis, Minn.). Data was analyzed using Prism software (Graphpad, San Diego, Calif.) to calculate IC50 values.

[2] = system: A549 cells; test: A549 cell migration assay (HGF-stimulated); assay type: cell-based; conditions: Homo sapiens, 40 ng/mL HGF, 48 h migration
Method: as §1, with “A549” for “EBC-1”, “# CCL-185)” for “#JCRB0820)”, “American Type Culture Collection (ATCC, Manassas, Va.).” for “Japan Health Science Research Resources Bank, Osaka, Japan.”, “37 degrees Celsius,” for “37° C.,”
Forty thousand cells in DMEM supplemented with 10% characterized fetal bovine serum (FBS; Invitrogen, Carlsbad, Calif.) were added per well in a 96-well black clear bottom Oris Collagen-Coated cell migration plate containing cell seeding stoppers (Platypus Technologies, Madison, Wis.). Cells were then incubated overnight at 37 degrees Celsius, 5% CO2, 95% humidity. Cell seeding stoppers were removed creating an area for cell migration in the center of each well of the plate. Media was replaced with DMEM supplemented with 0.5% FBS. […] A plate mask (Platypus Technologies, Madison, Wis.) that obscures each well except for the area for cell migration in the center of the well was attached to the bottom of the migration plate and fluorescence was detected using a fluorescent plate reader. Data was analyzed using Prism software (Graphpad, San Diego, Calif.) to calculate IC50 values.

[3] = system: MET activity in MKN-45 xenograft tumors; test: pMET inhibition in a MKN-45 xenograft pharmacodynamic model; assay type: in vivo; conditions: nude mice, single oral 10 mg/kg dose, out to 8 h post dose
Method: To examine the in vivo modulation of MET activity by compounds of formula I, MKN-45 xenograft tumors were excised at varying time points following a single oral dose. Briefly, MKN-45 cells were obtained from the Japan Health Sciences Foundation and expanded in RPMI medium which was supplemented with 20% FBS, 1% PSG (Penicillin/Streptomycin/Glutamine). The growth environment was maintained in an incubator with a 5% CO2 atmosphere at 37° C. Cells were harvested and re-suspended using 50% serum-free media and 50% Matrigel® to generate a stock concentration of 5×10^6 cells/mL.
Seven to 8 week old female Harlan nude mice (Hsd:AthymicNude-Fox1nu) were injected with 200 μL of cell suspension subcutaneously, just below the right axilla. All procedures carried out in this experiment were conducted in compliance with all the laws, regulations and guidelines of the National Institutes of Health (NIH). Treatment began when the mean tumor burden was approximately 300 mg. All mice were dosed with test compound by oral gavage. Plasma and tumor samples were collected from three mice at each timepoint 2, 4, 6, 8, 12, 18, and 24 hours after dosing. […] Plasma levels of MET inhibitors were determined by mass spectrometer analysis.

[4] = system: MKN-45 human gastric adenocarcinoma xenograft; test: MKN-45 xenograft study; assay type: in vivo; conditions: nude mice, oral gavage, after 14 days
Method: To evaluate the in vivo anti-cancer activity compounds of formula I, a MKN-45 human gastric adenocarcinoma xenograft was employed. Briefly, MKN-45 cells were obtained from the Japan Health Sciences Foundation and expanded in RPMI medium which was supplemented with 20% FBS, 1% PSG. The growth environment was maintained in an incubator with a 5% CO2 atmosphere at 37° C. Cells were harvested and re-suspended using 50% serum-free media and 50% Matrigel® to generate a stock concentration of 5×10^6 cells/mL.
Seven to 8 week old female Harlan nude mice (Hsd:AthymicNude-Fox1nu) were injected with 200 μL of cell suspension subcutaneously, just below the right axilla. All procedures carried out in this experiment were conducted in compliance with all the laws, regulations and guidelines of the National Institutes of Health (NIH). Treatment began when the mean tumor burden was approximately 150 mg. All mice were dosed with test compound by oral gavage. Body weights and tumor measurements were recorded three times weekly. Tumor burden (mg) was estimated from caliper measurements by the formula for the volume of a prolate ellipsoid assuming unit density as: Tumor burden (mg)=(L×W2)/2, where L and W were the respective orthogonal tumor length and width measurements (mm). […]

T1 sequence (P08581 25-1390): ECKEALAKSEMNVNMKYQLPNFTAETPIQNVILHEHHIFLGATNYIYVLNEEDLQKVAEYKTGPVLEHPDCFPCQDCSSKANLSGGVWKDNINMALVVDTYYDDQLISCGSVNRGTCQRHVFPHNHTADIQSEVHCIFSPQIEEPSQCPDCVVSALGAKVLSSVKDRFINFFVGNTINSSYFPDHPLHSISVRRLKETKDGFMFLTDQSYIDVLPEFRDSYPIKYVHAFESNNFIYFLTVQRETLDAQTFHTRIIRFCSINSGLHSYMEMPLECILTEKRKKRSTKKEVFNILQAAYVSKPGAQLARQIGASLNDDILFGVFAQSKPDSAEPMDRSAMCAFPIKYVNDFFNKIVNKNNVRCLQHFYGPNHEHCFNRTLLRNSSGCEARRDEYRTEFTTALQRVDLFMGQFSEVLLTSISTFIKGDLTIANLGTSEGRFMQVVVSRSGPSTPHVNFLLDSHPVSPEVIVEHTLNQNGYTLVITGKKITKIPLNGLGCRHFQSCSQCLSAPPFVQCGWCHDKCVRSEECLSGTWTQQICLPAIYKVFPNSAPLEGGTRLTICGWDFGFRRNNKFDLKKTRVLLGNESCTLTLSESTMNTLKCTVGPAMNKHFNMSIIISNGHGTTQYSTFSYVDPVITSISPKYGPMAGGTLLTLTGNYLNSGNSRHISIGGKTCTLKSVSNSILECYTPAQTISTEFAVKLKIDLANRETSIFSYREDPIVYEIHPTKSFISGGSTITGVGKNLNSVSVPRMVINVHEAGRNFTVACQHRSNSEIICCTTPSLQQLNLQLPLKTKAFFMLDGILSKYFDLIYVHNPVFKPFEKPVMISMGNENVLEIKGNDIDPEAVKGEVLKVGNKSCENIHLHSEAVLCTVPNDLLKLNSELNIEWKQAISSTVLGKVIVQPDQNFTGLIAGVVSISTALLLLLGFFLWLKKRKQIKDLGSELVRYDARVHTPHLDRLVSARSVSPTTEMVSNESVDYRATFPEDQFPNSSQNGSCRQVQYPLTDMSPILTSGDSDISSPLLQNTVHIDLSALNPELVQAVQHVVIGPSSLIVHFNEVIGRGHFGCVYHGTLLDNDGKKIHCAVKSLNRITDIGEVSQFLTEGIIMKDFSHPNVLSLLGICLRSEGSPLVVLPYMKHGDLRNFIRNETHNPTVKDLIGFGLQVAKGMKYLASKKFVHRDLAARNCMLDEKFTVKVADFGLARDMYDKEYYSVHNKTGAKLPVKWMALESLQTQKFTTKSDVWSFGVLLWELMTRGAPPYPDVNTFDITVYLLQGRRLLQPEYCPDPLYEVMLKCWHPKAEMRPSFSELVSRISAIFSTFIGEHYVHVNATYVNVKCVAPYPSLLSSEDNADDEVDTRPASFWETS

Row | IC50 [1] [nM] | IC50 [2] [nM] | Compound | inhibition of cFOS mRNA levels [3] [%] | % T/C ([4]; 10 mg/kg twice daily) [% T/C] | % T/C ([4]; 30 mg/kg twice daily) [% T/C]
1 | ≤ 100 |  | O=C(Nc1cc(F)c(Oc2ccnc(-c3cnn(CCO)c3)c2)cc1F)c1cccn(-c2ccc(F)cc2)c1=O [Example 3, N-(2,5-difluoro-4-((2-(1-(2-hydroxyethyl)-1H-pyrazol-4-yl)pyridin-4-yl)oxy)phenyl)-1-(4-fluorophenyl)-2-oxo-1,2-dihydropyridine-3-carboxamide hydrochloride] |  |  | 
2 | ≤ 100 | 100 to 1000 | Cn1cc(-c2cc(Oc3cc(F)c(NC(=O)c4cccn(-c5ccc(F)cc5)c4=O)cc3F)ccn2)cn1 [Example 1, N-(2,5-difluoro-4-((2-(1-methyl-1H-pyrazol-4-yl)pyridin-4-yl)oxy)phenyl)-1-(4-fluorophenyl)-2-oxo-1,2-dihydropyridine-3-carboxamide] |  |  | 
3 | ≤ 100 | ≤ 100 | CCOc1ccn(-c2ccc(F)cc2)c(=O)c1C(=O)Nc1cc(F)c(Oc2ccnc(-c3cnn(C)c3)c2)cc1F [Example 2, N-(2,5-difluoro-4-(2-(1-methyl-1H-pyrazol-4-yl)pyridin-4-yloxy)phenyl)-4-ethoxy-1-(4-fluorophenyl)-2-oxo-1,2-dihydropyridine-3-carboxamide] | 80 | 19 | 12
